The subject of test [1] is HCT-15 human colon cancer cells. In words: Subcutaneous HCT-15 colon cancer xenograft model. The format is in vivo, BALB/c nude mice. The conditions noted are these: Example 30: 0.5, 2, 10 mg/kg i.v., twice Q7D. How it is done:
The care and use of animals during the study were conducted in accordance with the regulations of the Association for Assessment and Accreditation of Laboratory Animal Care (AAALAC). Tumor volumes were measured twice weekly in two dimensions using a caliper, and the volume was expressed in mm^3 using the formula: V=0.5 a×b2 where a and b are the long and short diameters of the tumor, respectively.
The care and use of animals during the study were conducted in accordance with the regulations of the Association for Assessment and Accreditation of Laboratory Animal Care (AAALAC). Tumor volumes were measured twice weekly in two dimensions using a caliper, and the volume was expressed in mm^3 using the formula: V=0.5 a×b^2 where a and b are the long and short diameters of the tumor, respectively.

Test [2] concerns HCT-15 colon cancer cells. Nature of the test: 3-days CellTiter-Glo viability assay, HCT-15. The conditions noted are these: 4 μg/mL. (In ATP-based viability assays light output follows the ATP content of the culture.)
Test [3] concerns PANC-1 pancreatic cancer cells. In words: 3-days CellTiter-Glo viability assay, PANC-1. Type of test: cell-based, human. Particulars: 10 μg/mL.
Test [4] relates to COLO 205 human colon cancer cells. In words: 3-days CellTiter-Glo viability assay, COLO 205. The format is cell-based. Here is the method:
COLO 205 cells were harvested by pooling the culture supernatant containing non-adherent cells and trypsinized adherent cells. HCT 116 cells were harvested by trypsinization. […] In samples that were treated with a combination of two antibodies, the total antibody concentration in the assay was the same as in the samples that were treated with single antibodies. […] From the kit, 20 μL luciferin solution reagent was added per well and mixed by shaking the plate for 2 minutes at 500 rpm. Next, plates were incubated for 1.5 hours at 37° C. 100 μL supernatant was transferred to a white OptiPlate-96 (Perkin Elmer, Cat nr 6005299) and luminescence was measured on an EnVision Multilabel Reader (PerkinElmer). Data were analyzed and plotted using non-linear regression (sigmoidal dose-response with variable slope) using GraphPad Prism software.
The antibodies with and without the E430G mutation were tested as single agent and as combinations of the two non-crossblocking antibodies. COLO 205 cells were harvested as described in Example 8.

For test [5] the test system is unchanged. Nature of the test: Subcutaneous COLO 205 colon cancer xenograft model. The format is in vivo, SCID mice. How it is done: The in vivo anti-tumor efficacy of different anti-DR5 antibodies and the combination of DR5-01+DR5-05 antibodies with hexamerization enhancing mutation was evaluated in a subcutaneous model with COLO 205 human colon cancer cells. At day 0, cells were harvested by pooling the culture supernatant containing non-adherent cells and trypsinized adherent cells. 3×10^6 cells were injected in a volume of 200 μL PBS into the flank of 6-11 weeks old female SCID mice (C.B-17/IcrHan®Hsd-Prkdc^scid; Harlan). All experiments and animal handlings were approved by the local authorities, and were conducted according to all applicable international, national and local laws and guidelines. Tumor development was monitored at least twice per week by caliper (PLEXX) measurement as 0.52×(length)×(width)^2. […] Mice were treated by intraperitoneal (i.p.) injection of 100 μg antibody in 200 μL PBS on day 6 and 13 (5 mg/kg per dose). To check for correct antibody administration, blood samples were obtained for IgG serum determination three days after the first dose. […] Tumors were measured until 16 weeks after tumor inoculation.
Mice were treated by intravenous (i.v.) injection of 40 μg (2 mg/kg), 10 μg (0.5 mg/kg) or 2 μg (0.1 mg/kg) antibody in 100 μL PBS on day 10. Mice in the control group were treated with 40 μg (2 mg/kg) IgG1-b12. Tumors were measured until 17 weeks after tumor inoculation.
At day 9, the average tumor volume was measured and the mice were sorted into groups with equal tumor size variance. Mice were treated by intravenous (i.v.) injection of 10 μg (0.5 mg/kg) antibody in 200 μL PBS on day 9. Mice in the control group were treated with 10 μg (0.5 mg/kg) IgG1-b12.

For test [6], the system named is SK-MES-1 human lung cancer cells. Nature of the test: Subcutaneous SK-MES-1 lung cancer xenograft model. Particulars: Example 33: 0.5, 2, 10 mg/kg i.v., twice Q7D.
Procedure: The cells were maintained in vitro as a monolayer culture in MEM medium supplemented with 10% fetal bovine serum and 0.01 mM NEAA at 37° C. in an atmosphere of 5% CO2 in air. At day 0, adherent cells in an exponential growth phase were harvested by trypsin-EDTA treatment. 5×10^6 cells were injected in a volume of 100 μL PBS into the flank of 6-8 weeks old female BALB/c mice (Shanghai Laboratory Animal Center). Mouse handling and tumor volume measurements were performed as described in Example 30. Twenty-one days after tumor inoculation, the mean tumor size reached 161 mm^3 and mice were assigned into groups using randomized block design and treatments were started. Mice were treated twice according to a Q7D regimen by i.v. injection of 200 μg (10 mg/kg), 40 μg (2 mg/kg) or 10 μg (0.5 mg/kg) antibody in 10 μL PBS per g body weight. Mice in the control group were treated in parallel with 200 μg (10 mg/kg) IgG1-b12. After tumor inoculation, welfare of the animals was checked daily and tumor volumes were measured twice weekly.
Cell culturing, tumor cell inoculation, mice handling, tumor outgrowth measurements and endpoint determination were performed as described in Example 33.
Test [7] has as its system SW480 human colon cancer cells. Nature of the test: Subcutaneous SW480 colon cancer xenograft model. The format is in vivo, NOD/SCID mice. Particulars: 0.5, 2, 10 mg/kg i.v., twice Q7D. Here is the method: 1×10^7 cells were injected in a volume of 200 μL PBS with Matrigel (1:1) into the flank of 6-8 weeks old female NOD/SCID mice (Beijing HFK Bioscience).
Test [8] deals with BxPC-3 pancreatic cancer cells. Nature of the test: 3-days CellTiter-Glo viability assay, BxPC-3.
The mark [9] stands for this setting: 10 μg/mL, F(ab')2 goat-anti-human IgG, listed as IgG1-DR5-CONA.

“Also recorded” adds a separate entry of the source.

For “IgG1-CONA: reference anti-DR5 antibody based on U.S. Pat. No. 7,521,048 B2 and WO2010/138725”, the “tumor growth (mean tumor volume)” value in test [1] is on record as “did not”; in test [5] (Example 26: 5 mg/kg i.p. on day 6 and 13), “strongly inhibited tumor growth compared to IgG1-b12, but did not result in complete tumor abrogation”. Further, the “effect of secondary crosslinker on killing of HCT15 cells” value in test [2] is “enhanced by the presence of a secondary crosslinker”. For the same substance, in test [3], the “killing of PANC-1 cells in absence of Fc crosslinker” value is recorded as “did not induce target cell killing in the absence of an Fc crosslinker”. For the same substance, in test [4] (setting [9]), the “killing of COLO 205 cells in presence of Fc crosslinker” value is on record as “Fc crosslinking induced killing; also recorded: only induced killing in the presence of Fc crosslinker”. Moreover, the “killing of COLO 205 cells in absence of Fc crosslinker” value in test [4] (10 μg/mL, adherent cells) is listed as “did not induce target cell killing in the absence of an Fc crosslinker”. The “killing of adherent (attached) COLO 205 cells (% viable cells)” value in test [4] (cells adhered overnight before adding antibody, dilution series) is “not able to kill attached COLO 205 colon cancer cells”. Besides, the “tumor growth progression versus IgG1-b12 (Kaplan-Meier, cutoff >500 mm^3)” value in test [5] (Example 27: 0.5 mg/kg and 2 mg/kg) was “significantly inhibited tumor growth progression compared to the negative control antibody IgG1-b12”. Besides, the “tumor regression (mean tumor volume)” value is “regression was incomplete with recurring tumor outgrowth in all mice” in test [5] (Example 27: single dose 0.5 mg/kg i.v. day 10) and “almost all (7/8) mice” in test [5] (Example 27: single dose 2 mg/kg i.v. day 10). The “tumor growth (mean tumor volume) versus IgG1-b12” value in test [6] was “only had a significant effect compared to IgG1-b12 at 10 mg/kg (p<0.01) and 2 mg/kg (p<0.05) but not at 0.5 mg/kg”; in test [7], “only better than IgG1-b12 at the highest doses (10 mg/kg and 2 mg/kg p<0.01), but not at 0.5 mg/kg”. Further, the “effect of secondary crosslinker on killing of BxPC-3 cells” value in test [8] (4 μg/mL) is on record as “enhanced by the presence of a secondary crosslinker”. Moreover, the “killing of BxPC-3 cells in absence of Fc crosslinker” value in test [8] (10 μg/mL) is listed as “did not induce target cell killing in the absence of an Fc crosslinker”. Also, the “killing of BxPC-3 cells in presence of Fc crosslinker” value in test [8] (setting [9]) is “Fc crosslinking induced killing; also recorded: only induced killing in the presence of Fc crosslinker”.
